In ChEMBL document CHEMBL1201862, “PubChem BioAssay data set” (2004):
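Dose response: 5 concentrations. Exposure: 48 h. Format: 96-well plates. Endpoint: linear interpolation; highest concentration if not reached. Here, GI50 denotes the concentration required for 50% inhibition of growth.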 The source made the active and inactive calls. Rule as the data show it: active = GI50 up to about 1.1 µM and inactive = higher.

Legend:
Assay in all cases: NCI-60 cell line screen, 48 h
ACHN = tested on: ACHN
HCT-116 = tested on: HCT-116
K562 = tested on: K562
LOX IMVI = tested on: LOX IMVI
M14 = tested on: M14
MOLT-4 = tested on: MOLT-4
Malme-3M = tested on: Malme-3M
NCI-H23 = tested on: NCI-H23
OVCAR-3 = tested on: OVCAR-3
SF-295 = tested on: SF-295
SNB-19 = tested on: SNB-19
SNB-75 = tested on: SNB-75
SR = tested on: SR
UACC-62 = tested on: UACC-62
UO-31 = tested on: UO-31
SK-MEL-28 = tested on: SK-MEL-28

Measured: GI50

CC1(C)Cc2cc(C(=O)O)c3c(c2C1=O)COCC3
inactive: ACHN > 100 µM | HCT-116 > 100 µM | K562 > 100 µM | LOX IMVI > 100 µM | M14 > 100 µM | MOLT-4 > 100 µM | Malme-3M > 100 µM | NCI-H23 > 100 µM | OVCAR-3 > 100 µM | SF-295 > 100 µM | SNB-19 > 100 µM | SNB-75 > 100 µM | SR > 100 µM | UACC-62 > 100 µM | UO-31 > 100 µM

CC(C)(C)C1CCC2c3c([nH]c4ccccc34)C3C(=O)N(c4ccccc4)C(=O)C3C2C1 (stereo unspecified)
inactive: ACHN 4.94 µM | K562 4.36 µM | LOX IMVI 3.79 µM | M14 4.43 µM | MOLT-4 3.31 µM | Malme-3M 2.4 µM | NCI-H23 12 µM | OVCAR-3 4.01 µM | SF-295 4.86 µM | SK-MEL-28 4.97 µM | SNB-19 6.59 µM | SNB-75 2.85 µM | SR 6.27 µM | UACC-62 20.9 µM | UO-31 2.62 µM

O=C(N/C(=C\c1c(O)ccc2ccccc12)c1nc2ccccc2[nH]1)c1ccccc1
inactive: ACHN > 100 µM | HCT-116 > 100 µM | K562 > 100 µM | LOX IMVI > 100 µM | M14 > 100 µM | MOLT-4 > 100 µM | Malme-3M > 100 µM | NCI-H23 87.1 µM | OVCAR-3 > 100 µM | SK-MEL-28 > 100 µM | SNB-19 53.8 µM | SNB-75 18.8 µM | UACC-62 > 100 µM | UO-31 42.6 µM

COc1cc(OC)c2c(=O)cc(-c3ccc(OC)c(OC)c3OC)oc2c1
inactive: ACHN 83.6 µM | HCT-116 > 100 µM | K562 > 100 µM | LOX IMVI > 100 µM | M14 > 100 µM | Malme-3M > 100 µM | NCI-H23 > 100 µM | OVCAR-3 > 100 µM | SF-295 52.2 µM | SK-MEL-28 > 100 µM | SNB-19 > 100 µM | SNB-75 6.95 µM | UACC-62 > 100 µM

C/C(CC(=O)Nc1cccc(Cl)c1C)=N\N=C(N)N
inactive: ACHN > 100 µM | HCT-116 > 100 µM | K562 24.1 µM | LOX IMVI > 100 µM | M14 > 100 µM | MOLT-4 > 100 µM | Malme-3M > 100 µM | NCI-H23 > 100 µM | OVCAR-3 > 100 µM | SF-295 > 100 µM | SK-MEL-28 > 100 µM | SNB-19 > 100 µM | SNB-75 > 100 µM | UACC-62 > 100 µM | UO-31 > 100 µM

CC(=O)O/N=C(Cl)/C(Cl)=N/OC(C)=O
inactive: ACHN > 100 µM | HCT-116 > 100 µM | K562 > 100 µM | LOX IMVI > 100 µM | M14 > 100 µM | MOLT-4 > 100 µM | Malme-3M > 100 µM | NCI-H23 > 100 µM | SF-295 > 100 µM | SK-MEL-28 > 100 µM | SNB-19 > 100 µM | SNB-75 > 100 µM | SR > 100 µM | UACC-62 > 100 µM | UO-31 > 100 µM

CCCC(=O)c1ccc2c(ccc(=O)n2C)c1
inactive: HCT-116 > 100 µM | K562 > 100 µM | LOX IMVI > 100 µM | M14 > 100 µM | MOLT-4 > 100 µM | Malme-3M > 100 µM | NCI-H23 > 100 µM | OVCAR-3 > 100 µM | SF-295 > 100 µM | SK-MEL-28 > 100 µM | SNB-19 > 100 µM | SNB-75 27.2 µM | UACC-62 24.3 µM

CN(C(=O)C12C3C4C1C1C2C3C41C#N)C(C)(C)C (stereo unspecified)
inactive: ACHN > 100 µM | HCT-116 > 100 µM | K562 > 100 µM | LOX IMVI > 100 µM | M14 > 100 µM | MOLT-4 > 100 µM | Malme-3M > 100 µM | NCI-H23 > 100 µM | OVCAR-3 > 100 µM | SF-295 > 100 µM | SK-MEL-28 > 100 µM | SNB-19 > 100 µM | SNB-75 69.2 µM | UACC-62 > 100 µM | UO-31 > 100 µM

ON/N=C/c1cc2c(cc1Br)OCO2
inactive: ACHN > 386 µM | HCT-116 > 386 µM | K562 > 386 µM | LOX IMVI > 386 µM | MOLT-4 383 µM | Malme-3M > 386 µM | NCI-H23 > 386 µM | OVCAR-3 295 µM | SF-295 > 386 µM | SK-MEL-28 > 386 µM | SNB-19 > 386 µM | SR > 386 µM | UACC-62 > 386 µM

COc1ccc2c([nH]c3cc(O)c(C)cc32)c1C=O
inactive: ACHN > 25 µM | HCT-116 > 25 µM | K562 14.6 µM | LOX IMVI > 25 µM | M14 > 25 µM | MOLT-4 11.2 µM | Malme-3M > 25 µM | OVCAR-3 > 25 µM | SK-MEL-28 > 25 µM | SNB-19 > 25 µM | SR 18.9 µM | UACC-62 > 25 µM | UO-31 > 25 µM

CCn1c2c(c3ccccc31)C(c1ccccc1)CC1C(=O)N(c3ccccc3)C(=O)C21 (stereo unspecified)
inactive: ACHN 57.5 µM | HCT-116 55 µM | K562 89.5 µM | LOX IMVI > 100 µM | M14 > 100 µM | MOLT-4 91.2 µM | Malme-3M 24 µM | NCI-H23 > 100 µM | OVCAR-3 > 100 µM | SF-295 > 100 µM | SK-MEL-28 41.6 µM | SNB-19 50.5 µM | SNB-75 17.6 µM | UACC-62 38.9 µM | UO-31 36.1 µM

N#CC1(C#N)C=CC(=C2OCC3CCCN23)C=C1 (stereo unspecified)
inactive: ACHN > 100 µM | HCT-116 > 100 µM | K562 > 100 µM | LOX IMVI > 100 µM | M14 > 100 µM | MOLT-4 > 100 µM | Malme-3M > 100 µM | SF-295 > 100 µM | SNB-19 > 100 µM | SNB-75 52.2 µM | UACC-62 > 100 µM | UO-31 > 100 µM

C#CC1(O)CCC2[C@@H]3CCc4cc(Oc5nc(F)nc(-c6c7ccccc7c(SCC)n6CCC)n5)ccc4C3CC[C@@]21C (stereo partly specified)
inactive: ACHN > 100 µM | HCT-116 29.2 µM | K562 51.4 µM | LOX IMVI 76 µM | M14 40.5 µM | MOLT-4 28.7 µM | Malme-3M > 100 µM | NCI-H23 25 µM | OVCAR-3 > 100 µM | SF-295 65.8 µM | SK-MEL-28 50.7 µM | SR 34.7 µM | UACC-62 89.7 µM | UO-31 33.3 µM

COc1ccccc1/C=C1\C(=O)N(C(=O)c2ccc(NC(C)=O)cc2)N=C1C
inactive: ACHN > 100 µM | HCT-116 > 100 µM | K562 > 100 µM | LOX IMVI > 100 µM | MOLT-4 > 100 µM | Malme-3M > 100 µM | NCI-H23 > 100 µM | OVCAR-3 > 100 µM | SF-295 > 100 µM | SK-MEL-28 > 100 µM | SNB-19 > 100 µM | SNB-75 > 100 µM | SR > 100 µM | UO-31 > 100 µM
